ChEMBL document CHEMBL4706743, “2-Cyanoisonicotinamide Conjugation: A Facile Approach to Generate Potent Peptide Inhibitors of the Zika Virus Protease” (ACS Med Chem Lett, 2021)

Test: Inhibition of Zika virus NS2B (45 to 96 residues)/N-terminal thrombin cleavage fused and His6-tagged NS3 (1 to 177 residues) protease expressed in Escherichia coli using Bz-Nle-Lys-Lys-Arg-AMC as substrate preincubated for 10 mins followed by substrate addition and measured for 5 mins by fluorophotometric analysis

Row | Compound | Ki [µM]
1 | N=C(N)NCCC[C@@H]1NC(=O)[C@H](CCCCN)NC(=O)CNC(=O)[C@@H]2CSC(=N2)c2cc(ccn2)C(=O)NCCC[C@@H](C(N)=O)NC(=O)[C@H](CCCCN)NC1=O | 1.76
2 | N=C(N)NCCC[C@@H]1NC(=O)[C@H](CCCCN)NC(=O)CNC(=O)[C@@H]2CSC(=N2)c2cc(ccn2)C(=O)NCC[C@@H](C(N)=O)NC(=O)[C@H](CCCCN)NC1=O | 14.3
